Source: US9447086B2, “6-amino acid heteroaryldihydropyrimidines for the treatment and prophylaxis of hepatitis B virus infection” (priority 2012, dated 2016)
In brackets after ≈: the same amount, converted by molar mass.

What was measured:
[1] = Metabolic stability study in human microsome; assay type: in vitro ADME
Method: Human Microsomes were preincubated with test compound for 10 min at 37° C. in 100 mM phosphate buffer, pH 7.4. The reactions were initiated by adding NADPH or NADPH regenerating system to give a final incubation volume of 400 μL. For NADPH system, the final incubations contained 1 μM test compound, 0.5 mg/mL liver microsomal protein, 1 mM NADPH in 100 mM phosphate buffer, pH 7.4. For the NADPH regenerating system, the final incubations contained 1 μM test compound, 0.5 mg/mL liver microsomal protein, 3 mM glucose 6-phosphate, 1 mM NADP, 3 mM MgCl2 and 0.05 mg/mL glucose 6-phosphate dehydrogenase in 100 mM phosphate buffer, pH 7.4. After incubation times of 0, 3, 6, 9, 15 and 30 minutes at 37° C., 50 μL samples was removed and transferred to 150 μL methanol solution which was maintained at 4° C. containing 2 μM tolbutamide (internal standard) to terminating the reaction. Following precipitation and centrifugation, the amount of compound remaining in the samples were determined by LC-MS/MS. Controls of no NADPH or NADPH regenerating system at zero and 30 min were also prepared and analyzed.

[2] = Lyophilisation solubility assay (Lysa); assay type: physicochemical; settings: phosphate buffer, pH 6.5, aqueous buffer, thermodynamic from solid
Method: The aqueous solubility is an important physico-chemical property that plays a significant role in various physical and biological processes. It is desirable to have good solubility which enables good permeability and gastric and intestinal absorption, linear dose proportionality, less PK variability, and easy formulation for PD/PK studies. […] Lyophilisation solubility assay (Lysa) is a well adopted high throughput assay to measure compound solubility in industry.
Samples are prepared in duplicate from 10 mM DMSO stock solutions. After evaporation of DMSO with a centrifugal vacuum evaporator, the residue is solved in 0.05 M phosphate buffer (pH 6.5), stirred for one hour and shaken for two hours. After one night, the solutions is filtered using a microtiter filter plate and the filtrate and its 1/10 dilution are then analyzed by direct UV measurement or by HPLC-UV. […] The results are in μg/mL.

Row | Compound | Human Hepatic Clearance [1] [mL/min/kg] | solubility thermodynamic [2] [µg/mL]
1 | COC(=O)C1=C(CN2CC(F)(F)C[C@H]2C(=O)O)NC(c2cc(C)cs2)=N[C@H]1c1ccc(F)cc1Cl [Example 27, (R)-6-((S)-2-Carboxy-4,4-difluoro-pyrrolidin-1-ylmethyl)-4-(2-chloro-4-fluoro-phenyl)-2-(4-methyl-thiophen-2-yl)-1,4-dihydro-pyrimidine-5-carboxylic acid methyl ester] | 8.79 | –
2 | COC(=O)C1=C(CN2CCOC[C@H]2C(=O)O)NC(c2cc(C)ccn2)=N[C@H]1c1ccc(F)cc1Cl [Example 9, (S)-4-[(R)-6-(2-Chloro-4-fluoro-phenyl)-5-methoxycarbonyl-2-(4-methyl-pyridin-2-yl)-3,6-dihydro-pyrimidin-4-ylmethyl]-morpholine-3-carboxylic acid] | 10.07 | > 645
3 | CCOC(=O)C1=C(CN2CC(F)(F)C[C@H]2C(=O)O)NC(c2nccs2)=NC1c1ccc(F)cc1Cl (stereo partly drawn) [Example 26, 6-((S)-2-Carboxy-4,4-difluoro-pyrrolidin-1-ylmethyl)-4-(2-chloro-4-fluoro-phenyl)-2-thiazol-2-yl-1,4-dihydro-pyrimidine-5-carboxylic acid ethyl ester] | 10.02 | 668 (≈ 1260 µM)
4 | COC(=O)C1=C(CN2CSCCC2C(=O)O)NC(c2nccs2)=N[C@H]1c1ccc(F)cc1Cl (stereo partly drawn) [Example 86, 3-[[(4R)-4-(2-Chloro-4-fluoro-phenyl)-5-methoxycarbonyl-2-thiazol-2-yl-1,4-dihydropyrimidin-6-yl]methyl]-1,3-thiazinane-4-carboxylic acid] | 6.8 | > 596
5 | COC(=O)C1=C(CN2CC(F)(F)C[C@H]2C(=O)O)NC(c2nccs2)=N[C@H]1c1ccccc1Br [Example 72, (R)-4-(2-Bromo-phenyl)-6-((S)-2-carboxy-4,4-difluoro-pyrrolidin-1-ylmethyl)-2-thiazol-2-yl-1,4-dihydro-pyrimidine-5-carboxylic acid methyl ester] | 5.16 | > 670
6 | COC(=O)C1=C(CN2CC(F)(F)C[C@H]2C(=O)O)NC(c2ncccc2F)=N[C@H]1c1ccc(F)cc1Cl [Example 22, (R)-6-((S)-2-Carboxy-4,4-difluoro-pyrrolidin-1-ylmethyl)-4-(2-chloro-4-fluoro-phenyl)-2-(3-fluoro-pyridin-2-yl)-1,4-dihydro-pyrimidine-5-carboxylic acid methyl ester] | 4.82 | 630 (≈ 1200 µM)
7 | COC(=O)C1=C(CN2CC(F)(F)C[C@H]2C(=O)O)NC(c2nccs2)=N[C@H]1c1ccc(C#N)cc1Cl [Example 30, (R)-6-((S)-2-Carboxy-4,4-difluoro-pyrrolidin-1-ylmethyl)-4-(2-chloro-4-cyano-phenyl)-2-thiazol-2-yl-1,4-dihydro-pyrimidine-5-carboxylic acid methyl ester] | 6.56 | 667 (≈ 1280 µM)
8 | COC(=O)C1=C(CN2CC(F)(F)C[C@H]2C(=O)O)NC(c2nccs2)=N[C@H]1c1cc(F)c(F)cc1Cl [Example 18, (R)-6-((S)-2-Carboxy-4,4-difluoro-pyrrolidin-1-ylmethyl)-4-(2-chloro-4,5-difluoro-phenyl)-2-thiazol-2-yl-1,4-dihydro-pyrimidine-5-carboxylic acid methyl ester] | 3.38 | > 659
9 | COC(=O)C1=C(CN2CC(F)(F)C(C)(C)[C@H]2C(=O)O)NC(c2nccs2)=N[C@H]1c1ccc(F)cc1Cl [Example 89, (R)-6-((S)-2-Carboxy-4,4-difluoro-3,3-dimethyl-pyrrolidin-1-ylmethyl)-4-(2-chloro-4-fluoro-phenyl)-2-thiazol-2-yl-1,4-dihydro-pyrimidine-5-carboxylic acid methyl ester] | 6.13 | > 525
10 | CC(C)(C)OC(=O)C1=C(CN2CCOC[C@H]2C(=O)O)NC(c2nccs2)=N[C@H]1c1ccc(F)cc1Cl [Example 105, (S)-4-[5-tert-Butoxycarbonyl-6-(2-chloro-4-fluoro-phenyl)-2-thiazol-2-yl-3,6-dihydro-pyrimidin-4-ylmethyl]-morpholine-3-carboxylic acid] | 8.13 | –
11 | COC(=O)C1=C(CN2CC(F)(F)C[C@H]2C(=O)O)NC(c2nccs2)=N[C@H]1c1ccc(Cl)cc1F [Example 76, (R)-6-((S)-2-Carboxy-4,4-difluoro-pyrrolidin-1-ylmethyl)-4-(4-chloro-2-fluoro-phenyl)-2-thiazol-2-yl-1,4-dihydro-pyrimidine-5-carboxylic acid methyl ester] | 1.72 | > 630
12 | COC(=O)C1=C(CN2CC(F)(F)C[C@H]2C(=O)O)NC(c2nc(C)cn2C)=NC1c1ccc(F)cc1Cl (stereo partly drawn) [Example 20, 6-((S)-2-Carboxy-4,4-difluoro-pyrrolidin-1-ylmethyl)-4-(2-chloro-4-fluoro-phenyl)-2-(1,4-dimethyl-1H-imidazol-2-yl)-1,4-dihydro-pyrimidine-5-carboxylic acid methyl ester] | 10.74 | 683 (≈ 1300 µM)
13 | COC(=O)C1=C(CN2CCOC[C@H]2C(=O)O)NC(c2nccs2)=N[C@H]1c1cc(F)c(F)cc1Cl [Example 21, (S)-4-[(R)-6-(2-Chloro-4,5-difluoro-phenyl)-5-methoxycarbonyl-2-thiazol-2-yl-3,6-dihydro-pyrimidin-4-ylmethyl]-morpholine-3-carboxylic acid] | 3.08 | 828 (≈ 1610 µM)
14 | COC(=O)C1=C(CN2CCOC[C@H]2C(=O)O)NC(c2nc(C(F)F)cs2)=N[C@H]1c1ccc(F)cc1Cl [Example 88, (3S)-4-[[(4R)-4-(2-Chloro-4-fluoro-phenyl)-2-[4-(difluoromethyl)thiazol-2-yl]-5-methoxycarbonyl-1,4-dihydropyrimidin-6-yl]methyl]morpholine-3-carboxylic acid] | 6.46 | > 665
15 | CCOC(=O)C1=C(CN2CC(F)(F)C[C@H]2C(=O)O)NC(c2nc(C(F)(F)F)cn2C)=N[C@H]1c1ccc(F)cc1Cl [Example 40, (R)-6-((S)-2-Carboxy-4,4-difluoro-pyrrolidin-1-ylmethyl)-4-(2-chloro-4-fluoro-phenyl)-2-(1-methyl-4-trifluoromethyl-1H-imidazol-2-yl)-1,4-dihydro-pyrimidine-5-carboxylic acid ethyl ester] | 8.45 | 409 (≈ 689 µM)
16 | COC(=O)C1=C(CN2CC(F)(F)C[C@H]2C(=O)O)NC(c2nccs2)=NC1c1ccc(F)cc1Cl (stereo partly drawn) [Example 1, 6-((S)-2-Carboxy-4,4-difluoro-pyrrolidin-1-ylmethyl)-4-(2-chloro-4-fluoro-phenyl)-2-thiazol-2-yl-1,4-dihydro-pyrimidine-5-carboxylic acid methyl ester] | 7.51 | –
17 | CCOC(=O)C1=C(CN2CCOC[C@H]2C(=O)O)NC(c2nccs2)=N[C@H]1c1ccc(Cl)cc1 [Example 126, (3S)-4-[[(4S)-4-(4-Chlorophenyl)-5-ethoxycarbonyl-2-(1,3-thiazol-2-yl)-1,4-dihydropyrimidin-6-yl]methyl]morpholine-3 carboxylic acid] | 0 | –
